These results are taken from patent US12202835B2, “Substituted aromatic ring-linked dioxinoquinazolines and dioxinoquinolines as kinase inhibitors” (BEIJING SCITECH-MQ PHARMACEUTICALS LIMITED, priority 2018, dated 2025).

Usually IC50 stands for the concentration needed to halve the response being measured.

One assay has as its target TRKA kinase (Homo sapiens (Human), UniProt P04629). As to the kind of experiment: Assay of small molecular compounds for inhibiting the activity of TRKA kinase (LANCE TR-FRET). It is filed as biochemical. The essentials: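 TRKA (supplied as 2 nM 2× solution) was pre-reacted with compounds for 5 min at room temperature before a 4× ULight-TK peptide/ATP mix (400 nM/40 μM) started the 60-min dark reaction at 1% DMSO. After stop and 60-min detection, TR-FRET was read.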

A further assay concerns the target VEGFR-2 kinase (Homo sapiens (Human), UniProt P35968). Put plainly: Assay of small molecular compounds for inhibiting the activity of VEGFR-2 kinase (LANCE TR-FRET). It is filed as biochemical. The settings on record: read-out: VEGFR2 IC50. The essentials:
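LANCE TR-FRET with human VEGFR-2 (2× stock 0.5 nM) preincubated 30 min with compound (final 2500 to 0.042 nM, 11-point 3-fold), then ULight-JAK-1 (Tyr1023) peptide/ATP added (4× stocks 200 nM/40 μM). Reaction 60 min room temperature, 4% DMSO; IC50 from inhibition-rate curve.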
In general terms: TR-FRET usually uses a lanthanide donor and a delayed reading to cut background.

The next assay relates to Ba/F3-AXL cells. Put plainly: Assay for inhibiting the proliferation of Ba/F3-AXL cells (CCK-8). It is filed as cell-based. The settings on record: 72 hours of incubation, medium with 100 ng/mL hGas6, CCK-8. On the procedure:
The values were then imported into Graphpad Prism 5 software for curve fitting, and IC50 was calculated.

Some results are limits rather than exact numbers.

Chain of TRKA kinase (P04629 33-796): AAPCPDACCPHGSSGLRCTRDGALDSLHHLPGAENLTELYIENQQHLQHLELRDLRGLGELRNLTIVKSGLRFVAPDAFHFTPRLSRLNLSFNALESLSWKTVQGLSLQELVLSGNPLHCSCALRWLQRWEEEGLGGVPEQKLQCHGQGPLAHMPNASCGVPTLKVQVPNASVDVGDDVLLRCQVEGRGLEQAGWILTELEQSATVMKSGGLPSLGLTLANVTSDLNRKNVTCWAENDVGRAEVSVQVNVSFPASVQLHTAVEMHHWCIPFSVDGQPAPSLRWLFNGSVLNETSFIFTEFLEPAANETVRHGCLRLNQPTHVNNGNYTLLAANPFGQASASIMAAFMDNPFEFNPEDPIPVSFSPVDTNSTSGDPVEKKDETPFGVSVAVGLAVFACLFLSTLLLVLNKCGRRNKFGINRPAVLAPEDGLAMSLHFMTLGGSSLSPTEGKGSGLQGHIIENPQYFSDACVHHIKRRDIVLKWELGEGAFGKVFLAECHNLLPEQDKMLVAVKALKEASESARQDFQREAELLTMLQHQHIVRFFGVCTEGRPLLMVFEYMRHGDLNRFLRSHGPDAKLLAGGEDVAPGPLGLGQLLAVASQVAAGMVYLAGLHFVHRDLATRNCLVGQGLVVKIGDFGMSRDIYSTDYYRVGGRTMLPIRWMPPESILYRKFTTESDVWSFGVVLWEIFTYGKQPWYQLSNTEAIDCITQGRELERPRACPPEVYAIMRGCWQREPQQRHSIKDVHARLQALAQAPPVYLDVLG
Chain of VEGFR-2 kinase (P35968 20-1356): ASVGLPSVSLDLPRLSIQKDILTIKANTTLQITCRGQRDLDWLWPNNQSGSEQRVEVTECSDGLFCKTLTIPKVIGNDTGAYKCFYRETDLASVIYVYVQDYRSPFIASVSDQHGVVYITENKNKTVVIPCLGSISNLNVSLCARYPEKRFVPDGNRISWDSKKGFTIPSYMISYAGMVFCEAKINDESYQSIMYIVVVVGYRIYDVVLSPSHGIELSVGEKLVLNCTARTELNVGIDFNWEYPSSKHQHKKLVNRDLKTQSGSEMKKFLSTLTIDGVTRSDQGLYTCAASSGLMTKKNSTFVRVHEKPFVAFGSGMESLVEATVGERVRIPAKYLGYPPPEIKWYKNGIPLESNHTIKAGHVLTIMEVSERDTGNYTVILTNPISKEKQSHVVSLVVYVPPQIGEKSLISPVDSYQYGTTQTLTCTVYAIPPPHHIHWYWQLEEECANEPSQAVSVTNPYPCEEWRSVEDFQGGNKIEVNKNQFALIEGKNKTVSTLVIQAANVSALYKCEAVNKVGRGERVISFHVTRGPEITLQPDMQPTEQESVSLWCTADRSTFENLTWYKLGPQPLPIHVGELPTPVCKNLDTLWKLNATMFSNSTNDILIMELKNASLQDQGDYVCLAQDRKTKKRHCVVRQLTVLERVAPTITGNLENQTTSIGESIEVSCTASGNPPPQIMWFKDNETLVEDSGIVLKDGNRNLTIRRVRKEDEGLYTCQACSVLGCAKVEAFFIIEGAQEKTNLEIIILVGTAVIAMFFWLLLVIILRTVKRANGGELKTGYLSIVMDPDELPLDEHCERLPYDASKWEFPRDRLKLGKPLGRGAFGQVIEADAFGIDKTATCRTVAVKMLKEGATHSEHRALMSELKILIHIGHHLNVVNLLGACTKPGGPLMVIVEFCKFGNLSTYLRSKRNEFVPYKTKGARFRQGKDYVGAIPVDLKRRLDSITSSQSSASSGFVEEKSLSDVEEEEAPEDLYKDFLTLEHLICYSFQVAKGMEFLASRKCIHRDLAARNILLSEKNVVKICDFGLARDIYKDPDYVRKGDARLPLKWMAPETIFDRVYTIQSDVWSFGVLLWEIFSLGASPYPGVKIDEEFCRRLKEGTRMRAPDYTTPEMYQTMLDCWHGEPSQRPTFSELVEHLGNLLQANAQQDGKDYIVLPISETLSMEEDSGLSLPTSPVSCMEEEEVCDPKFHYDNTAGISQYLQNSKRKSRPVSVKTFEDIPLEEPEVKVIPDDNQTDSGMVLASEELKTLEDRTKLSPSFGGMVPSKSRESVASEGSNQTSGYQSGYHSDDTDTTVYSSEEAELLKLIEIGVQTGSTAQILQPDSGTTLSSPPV

Turning to `CC(C)n1cc(C(=O)Nc2ccc(Oc3ccnc4cc(OCC(C)(C)O)c5c(c34)OCCO5)c(F)c2)c(=O)n(-c2ccc(F)cc2)c1=O` [Example 122, N-(3-fluoro-4-((5-(2-hydroxy-2-methylpropoxy)-2,3-dihydro-[1,4]dioxino[2,3-f]quinolin-10-yl)oxy)phenyl)-3-(4-fluorophenyl)-1-isopropyl-2,4-dioxo-1,2,3,4-tetrahydropyrimidine-5-carboxamide], the results for the IC50 against TRKA kinase, on VEGFR-2 kinase and in the assay on Ba/F3-AXL cells were under 0.05 µM, 0.5 to 5 µM and under 0.05 µM, respectively.
`COc1cc2nccc(Oc3ccc(NC(=O)c4c(OC)ccn(-c5ccc(F)cc5)c4=O)cc3F)c2c2c1OCCO2` [Example 18, N-(3-fluoro-4-((5-methoxy-2,3-dihydro-[1,4]dioxino[2,3-f]quinolin-10-yl)oxy)phenyl)-1-(4-fluorophenyl)-4-methoxy-2-oxo-1,2-dihydropyridine-3-carboxamide]: the figures for the IC50 against TRKA kinase, at VEGFR-2 kinase and with Ba/F3-AXL cells were under 0.05 µM, at most 0.05 µM and under 0.05 µM, respectively.
Turning to `COc1ccn(-c2ccc(F)cc2)c(=O)c1C(=O)Nc1ccc(Oc2ccnc3cc(OCCCC#N)c4c(c23)OCCO4)cc1Cl` [Example 132, N-(2-chloro-4-((5-(3-cyanopropoxy)-2,3-dihydro-[1,4]dioxino[2,3-f]quinolin-10-yl)oxy)phenyl)-1-(4-fluorophenyl)-4-methoxy-2-oxo-1,2-dihydropyridine-3-carboxamide], the values for the IC50 on TRKA kinase, on VEGFR-2 kinase and in the assay with Ba/F3-AXL cells were under 0.05 µM, 0.5 to 5 µM and under 0.05 µM, respectively.
In the case of `CC(C)n1cc(C(=O)Nc2ccc(Oc3ccnc4cc(OCCCN5CCC(C)(O)CC5)c5c(c34)OCCO5)c(F)c2)c(=O)n(-c2ccc(F)cc2)c1=O` [Example 94, N-(3-fluoro-4-((5-(3-(4-methyl-4-hydroxypiperidin-1-yl)propoxy)-2,3-dihydro-[1,4]dioxino[2,3-f]quinolin-10-yl)oxy)phenyl)-3-(4-fluorophenyl)-1-isopropyl-2,4-dioxo-1,2,3,4-tetrahydropyrimidine-5-carboxamide], the figures for the IC50 at TRKA kinase, at VEGFR-2 kinase and in the assay on Ba/F3-AXL cells were under 0.05 µM, 0.5 to 5 µM and under 0.05 µM, respectively.
On to `COc1cn(-c2ccc(F)cc2C)nc1C(=O)Nc1ccc(Oc2ccnc3cc(OCCCN4CCOCC4)c4c(c23)OCCO4)c(F)c1` [Example 27, 1-(4-fluoro-2-methylphenyl)-N-(3-fluoro-4-((5-(3-morpholinopropoxy)-2,3-dihydro-[1,4]dioxino[2,3-f]quinolin-10-yl)oxy)phenyl)-4-methoxy-1H-pyrazole-3-carboxamide], for which the figures for the IC50 on TRKA kinase, at VEGFR-2 kinase and in the assay on Ba/F3-AXL cells were under 0.05 µM, at most 0.05 µM and under 0.05 µM, respectively.
For `CCOc1ccn(-c2ccc(F)cc2)c(=O)c1C(=O)Nc1ccc(Oc2ccnc3cc(OCCCN4CCCCC4)c4c(c23)OCCO4)c(F)c1` [Example 33, N-(3-fluoro-4-((5-(3-(piperidin-1-yl)propoxy)-2,3-dihydro-[1,4]dioxino[2,3-f]quinolin-10-yl)oxy)phenyl)-1-(4-fluorophenyl)-4-ethoxy-2-oxo-1,2-dihydropyridine-3-carboxamide], the figures for the IC50 against TRKA kinase, at VEGFR-2 kinase and in the assay with Ba/F3-AXL cells were under 0.05 µM, at most 0.05 µM and under 0.05 µM, respectively.
On to `Cn1cc(C(=O)Nc2ccc(Oc3ccnc4cc(OCCCN5CCOCC5)c5c(c34)OCCO5)cc2Cl)c(=O)n(-c2ccc(F)cc2)c1=O` [Example 98, N-(2-chloro-4-((5-(3-morpholinopropoxy)-2,3-dihydro-[1,4]dioxino[2,3-f]quinolin-10-yl)oxy)phenyl)-3-(4-fluorophenyl)-1-methyl-2,4-dioxo-1,2,3,4-tetrahydropyrimidine-5-carboxamide], for which the values for the IC50 at TRKA kinase, at VEGFR-2 kinase and with Ba/F3-AXL cells were under 0.05 µM, 0.5 to 5 µM and under 0.05 µM, respectively.
`CCOc1ccn(-c2ccc(F)cc2)c(=O)c1C(=O)Nc1ccc(Oc2ccnc3cc(OCCOC)c4c(c23)OCCO4)c(F)c1` [Example 36, N-(3-fluoro-4-((5-(2-methoxyethoxy)-2,3-dihydro-[1,4]dioxino[2,3-f]quinolin-10-yl)oxy)phenyl)-1-(4-fluorophenyl)-4-ethoxy-2-oxo-1,2-dihydropyridine-3-carboxamide]: the IC50 against TRKA kinase is under 0.05 µM; at VEGFR-2 kinase, at most 0.05 µM; in the assay on Ba/F3-AXL cells, under 0.05 µM.
Consider `COc1cc2nccc(Oc3cc(Cl)c(NC(=O)c4cn(C)c(=O)n(-c5ccc(F)cc5)c4=O)cc3F)c2c2c1OCCO2` [Example 116, N-(2-chloro-5-fluoro-4-((5-methoxy-2,3-dihydro-[1,4]dioxino[2,3-f]quinolin-10-yl)oxy)phenyl)-3-(4-fluorophenyl)-1-methyl-2,4-dioxo-1,2,3,4-tetrahydropyrimidine-5-carboxamide], for which the IC50 on TRKA kinase is under 0.05 µM; at VEGFR-2 kinase it was over 5 µM; in the assay on Ba/F3-AXL cells, under 0.05 µM.
In the case of `CCOc1ccn(-c2ccc(F)cc2)c(=O)c1C(=O)Nc1ccc(Oc2ccnc3cc(OC)c4c(c23)OCCO4)c(F)c1` [Example 19, N-(3-fluoro-4-((5-methoxy-2,3-dihydro-[1,4]dioxino[2,3-f]quinolin-10-yl)oxy)phenyl)-1-(4-fluorophenyl)-4-ethoxy-2-oxo-1,2-dihydropyridine-3-carboxamide], the results for the IC50 against TRKA kinase, on VEGFR-2 kinase and with Ba/F3-AXL cells were under 0.05 µM, at most 0.05 µM and under 0.05 µM, respectively.
For `COc1cc2nccc(Oc3ccc(NC(=O)c4cn(C)c(=O)n(-c5ccc(F)cc5)c4=O)cc3F)c2c2c1OCCO2` [Example 13, N-(3-fluoro-4-((5-methoxy-2,3-dihydro-[1,4]dioxino[2,3-f]quinolin-10-yl)oxy)phenyl)-3-(4-fluorophenyl)-1-methyl-2,4-dioxo-1,2,3,4-tetrahydropyrimidine-5-carboxamide], the IC50 against TRKA kinase was under 0.05 µM; at VEGFR-2 kinase, 0.5 to 5 µM; in the assay with Ba/F3-AXL cells, under 0.05 µM.
As for `CCOc1ccn(-c2ccc(F)cc2)c(=O)c1C(=O)Nc1ccc(Oc2ccnc3cc(OCCCN4CCOCC4)c4c(c23)OCCO4)c(F)c1` [Example 22, N-(3-fluoro-4-((5-(3-morpholinopropoxy)-2,3-dihydro-[1,4]dioxino[2,3-f]quinolin-10-yl)oxy)phenyl)-1-(4-fluorophenyl)-4-ethoxy-2-oxo-1,2-dihydropyridine-3-carboxamide], the IC50 was under 0.05 µM on TRKA kinase, at most 0.05 µM at VEGFR-2 kinase and under 0.05 µM with Ba/F3-AXL cells.
Take `CCOc1ccn(-c2cccc(F)c2)c(=O)c1C(=O)Nc1ccc(Oc2ccnc3cc(OC)c4c(c23)OCCO4)c(F)c1` [Example 114, N-(3-fluoro-4-((5-methoxy-2,3-dihydro-[1,4]dioxino[2,3-f]quinolin-10-yl)oxy)phenyl)-2-oxo-4-ethoxy-1-(3-fluorophenyl)-1,2-dihydropyridin-3-carboxamide]: the IC50 is 0.05 to 0.5 µM against TRKA kinase, 0.05 to 0.5 µM at VEGFR-2 kinase and under 0.05 µM with Ba/F3-AXL cells.
On to `Cn1cc(C(=O)Nc2ccc(Oc3ccnc4cc(OCCCN5CCOCC5)c5c(c34)OCCO5)c(F)c2)c(=O)n(-c2ccc(F)cc2)c1=O` [Example 15, N-(3-fluoro-4-((5-(3-morpholinopropoxy)-2,3-dihydro-[1,4]dioxino[2,3-f]quinolin-10-yl)oxy)phenyl)-3-(4-fluorophenyl)-1-methyl-2,4-dioxo-1,2,3,4-tetrahydropyrimidine-5-carboxamide], for which the IC50 on TRKA kinase is under 0.05 µM; at VEGFR-2 kinase, 0.05 to 0.5 µM; with Ba/F3-AXL cells it was under 0.05 µM.
Consider `CC(C)n1cc(C(=O)Nc2ccc(Oc3ccnc4cc(OCCCN(C)C5CCC5)c5c(c34)OCCO5)c(F)c2)c(=O)n(-c2ccc(F)cc2)c1=O` [Example 96, N-(3-fluoro-4-((5-(3-((cyclobutyl)(methyl)amino)propoxy)-2,3-dihydro-[1,4]dioxino[2,3-f]quinolin-10-yl)oxy)phenyl)-3-(4-fluorophenyl)-1-isopropyl-2,4-dioxo-1,2,3,4-tetrahydropyrimidine-5-carboxamide], for which the IC50 at TRKA kinase was under 0.05 µM; on VEGFR-2 kinase, 0.5 to 5 µM; in the assay on Ba/F3-AXL cells, under 0.05 µM.
For the molecule `COc1cc2nccc(Oc3ccc(NC(=O)c4cccn(-c5ccc(F)cc5)c4=O)cc3F)c2c2c1OCCO2` [Example 17, N-(3-fluoro-4-((5-methoxy-2,3-dihydro-[1,4]dioxino[2,3-f]quinolin-10-yl)oxy)phenyl)-1-(4-fluorophenyl)-2-oxo-1,2-dihydropyridine-3-carboxamide], the IC50 is under 0.05 µM against TRKA kinase, at most 0.05 µM on VEGFR-2 kinase and under 0.05 µM in the assay with Ba/F3-AXL cells.
`COc1ccn(-c2ccc(F)cc2)c(=O)c1C(=O)Nc1ccc(Oc2ncnc3cc(OCCCN4CCOCC4)c4c(c23)OCCO4)c(F)c1` [Example 5, N-(3-fluoro-4-((5-(3-morpholinopropoxy)-2,3-dihydro-[1,4]dioxino[2,3-f]quinazolin-10-yl)oxy)phenyl)-1-(4-fluorophenyl)-4-methoxy-2-oxo-1,2-dihydropyridine-3-carboxamide]: the results for the IC50 against TRKA kinase, at VEGFR-2 kinase and in the assay on Ba/F3-AXL cells were under 0.05 µM, 0.05 to 0.5 µM and under 0.05 µM, respectively.
With `CCOc1ccn(-c2ccc(Cl)cc2)c(=O)c1C(=O)Nc1ccc(Oc2ccnc3cc(OC)c4c(c23)OCCO4)c(F)c1` [Example 113, N-(3-fluoro-4-((5-methoxy-2,3-dihydro-[1,4]dioxino[2,3-f]quinolin-10-yl)oxy)phenyl)-2-oxo-4-ethoxy-1-(4-chlorophenyl)-1,2-dihydropyridin-3-carboxamide], the IC50 against TRKA kinase was under 0.05 µM; on VEGFR-2 kinase it was 0.05 to 0.5 µM; in the assay on Ba/F3-AXL cells, under 0.05 µM.
